Patent US10793576B2, “Compound used as Bruton's tyrosine kinase inhibitor and preparation method and application thereof” (Chengdu Brilliant Pharmaceutical Co., LTD., priority 2017, dated 2020)

How the values were obtained:
[1] = biological target: BTK kinase (Homo sapiens (Human), UniProt Q06187); experiment: In vitro assay for the inhibition of BTK kinase activity (Mobility-Shift Assay); format: biochemical
Summary of the method: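 Fluorescently labelled peptide substrate converted by the kinase; substrate and phosphorylated product separated by charge on a microfluidic chip (mobility shift) and quantified separately. Results expressed as conversion rate; control wells received 100% DMSO.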

[2] = test system: DOHH2 cells; experiment: Cell proliferation inhibition in vitro, DOHH2 cells by CTG assay; format: cell-based; conditions: Homo sapiens, DOHH-2, 72 hours, read-out: Inhibitions of cell activities IC50 (nM) DOHH2
[3] = test system: TMD8 cells; experiment: Cell proliferation inhibition in vitro, TMD8 cells by CCK-8 method; format: cell-based; conditions: Homo sapiens, 72 hours, read-out: Inhibitions of cell activities IC50 (nM) TMD8
[4] = test system: OCI-LY10 cells; experiment: Cell proliferation inhibition in vitro, OCI-ly10 cells by CCK-8 method; format: cell-based; conditions: Homo sapiens, 72 hours, read-out: Inhibitions of cell activities IC50 (nM) OCI-LY10
[5] = biological target: hERG potassium channel (Homo sapiens (Human), UniProt Q12809); experiment: hERG experiment to investigate potential cardiotoxicity (manual patch clamp, CHO hERG cells); format: cell-based; conditions: whole cell patch clamp, tail current
Protocol: CHO hERG cells were grown in a culture dish containing the above medium, and cultured in an incubator at 37° C. and 5% CO2. CHO hERG cells were transferred to circular glass slides placed in the culture dish 24-48 hours prior to electrophysiological experiments and grown under the same medium and culture conditions as above. The density of CHO hERG cells on each circular slide shall meet the requirement that most of the cells are independent and individual.
2: Preparation of Experimental Solutions
3: Electrophysiological Recording System
A manual patch clamp system (HEKA EPC-10 signal amplifier and digital conversion system, purchased from HEKA Electronics, Germany) is used in this experiment for whole cell currents recording. A circular slide with CHO hERG cells grown on its surface was placed in an electrophysiology recording tank under an inverted microscope. The extracellular fluid was continuously perfused in the recording tank (about 1 ml per minute). A conventional whole cell patch clamp current recording technique was used in the experimental procedure. Unless otherwise specified, the experiments were carried out at conventional room temperature (about 25° C.). The cells were clamped at a voltage of −80 mV. The clamp voltage for cells was depolarized to +20 mV to activate the hERG potassium channel, and after 5 seconds, the cells were clamped to −50 mV to eliminate inactivation and generate a tail current. The tail current peak was used as the value of the hERG current magnitude. After the hERG potassium current recorded in the above step was stable under the continuous extracellular fluid perfusion in the recording tank, the drug to be tested can be perfused simultaneously and filled until the inhibitory effect of the drug on the hERG current reached a steady state. Generally, the superposition of the last three consecutive current recording lines was used as a criterion for judging whether or not the state was stable. After reaching a steady state, a wash with extracellular fluid perfusion was conducted until the hERG returned to that before the drug was added. One cell can be used to test one or more drugs, or multiple concentrations of the same drug, but need to be washed with an extracellular fluid between different drugs. Cisapride (purchased from Sigma) was used as a positive control in the experiment to ensure that the cells used were of normal quality.
4: Treatment and Dilution of Compounds
Prior to testing, the compounds were first diluted to 10, 3, 1, 0.3, and 0.1 mM stock solutions by a method of gradual dilution with DMSO, and were then diluted to the final M test concentration with extracellular fluids. The final concentration of DMSO in each of the other compound solutions was 0.1%, except that the DMSO concentration in the 30 μM compound test solution was 0.3%. The test concentration of the positive control (Cisapride) was 0.1 μM. All compound solutions were sonicated and shaken for a routine of 5 to 10 minutes to ensure complete dissolution of the compounds.
The test data were analyzed by HEKA Patchmaster, Microsoft Excel and data analysis software provided by Graphpad Prism.

[6] = Pharmacokinetic test in SD rats (oral 10 mg/kg, intravenous 1 mg/kg); format: in vivo; conditions: SD rat; for F (po) %: oral 10 mg/kg vs intravenous 1 mg/kg; for clearance / half-life / AUC / Cmax / Tmax: male, plasma; for clearance / half-life: intravenous 1 mg/kg; for clearance: read-out: Cl (iv) (converted); for half-life: read-out: T½ (iv) h (converted); for AUC / Cmax / Tmax: oral 10 mg/kg
Protocol: SD rat, male (purchased from Shanghai Sippr-Bk Laboratory Animal Co., Ltd.), each tested compound was administered at a single dose to SD rats by oral administration (10 mg/kg, 3 rats in each group) and intravenous administration (1 mg/kg, 3 rats in each group) for the pharmacokinetic study. The tested compounds were dissolved using DMSO/[…] sodium chloride injection=5/95 (V/V), and vortexed for 1 minute, and after 1 minute of sonication, the compounds were formulated into solutions for administrations. Animals were fasted for 16-17 hours prior to oral administration and feeding was restored 4 hours after administration. After oral and intravenous administration, pharmacokinetic samples were collected from SD rats by jugular vein or cardiac puncture at the following time points: before administration, 5 minute, 15 minute, 30 minute, 1 hour, 2 hours, 4 hours, 6 hours, 8 hours and 24 hours after administration. 3 whole blood samples were collected at each time point, and the collected amount was about 0.2 mL, and the collected samples were anticoagulated by heparin sodium. After collection, the blood samples were immediately placed on ice and centrifuged to separate plasma within 30 minutes (centrifugation conditions: 8000 rpm, 6 minute, 2-8° C.). The collected plasma was stored at −70° C. prior to analysis. 50 μL of plasma sample was brought into a 1.5 mL centrifuge tube, 250 μL of internal standard solution (blank with no internal standard but the same volume of methanol added) was added, blended with vortex, centrifuged at 15000 rpm for 5 minutes. 200 μL of supernatant was taken and added to a 96-well sample plate and the samples were analyzed by LC-MS/MS.

Chain of hERG potassium channel (Q12809 whole entry): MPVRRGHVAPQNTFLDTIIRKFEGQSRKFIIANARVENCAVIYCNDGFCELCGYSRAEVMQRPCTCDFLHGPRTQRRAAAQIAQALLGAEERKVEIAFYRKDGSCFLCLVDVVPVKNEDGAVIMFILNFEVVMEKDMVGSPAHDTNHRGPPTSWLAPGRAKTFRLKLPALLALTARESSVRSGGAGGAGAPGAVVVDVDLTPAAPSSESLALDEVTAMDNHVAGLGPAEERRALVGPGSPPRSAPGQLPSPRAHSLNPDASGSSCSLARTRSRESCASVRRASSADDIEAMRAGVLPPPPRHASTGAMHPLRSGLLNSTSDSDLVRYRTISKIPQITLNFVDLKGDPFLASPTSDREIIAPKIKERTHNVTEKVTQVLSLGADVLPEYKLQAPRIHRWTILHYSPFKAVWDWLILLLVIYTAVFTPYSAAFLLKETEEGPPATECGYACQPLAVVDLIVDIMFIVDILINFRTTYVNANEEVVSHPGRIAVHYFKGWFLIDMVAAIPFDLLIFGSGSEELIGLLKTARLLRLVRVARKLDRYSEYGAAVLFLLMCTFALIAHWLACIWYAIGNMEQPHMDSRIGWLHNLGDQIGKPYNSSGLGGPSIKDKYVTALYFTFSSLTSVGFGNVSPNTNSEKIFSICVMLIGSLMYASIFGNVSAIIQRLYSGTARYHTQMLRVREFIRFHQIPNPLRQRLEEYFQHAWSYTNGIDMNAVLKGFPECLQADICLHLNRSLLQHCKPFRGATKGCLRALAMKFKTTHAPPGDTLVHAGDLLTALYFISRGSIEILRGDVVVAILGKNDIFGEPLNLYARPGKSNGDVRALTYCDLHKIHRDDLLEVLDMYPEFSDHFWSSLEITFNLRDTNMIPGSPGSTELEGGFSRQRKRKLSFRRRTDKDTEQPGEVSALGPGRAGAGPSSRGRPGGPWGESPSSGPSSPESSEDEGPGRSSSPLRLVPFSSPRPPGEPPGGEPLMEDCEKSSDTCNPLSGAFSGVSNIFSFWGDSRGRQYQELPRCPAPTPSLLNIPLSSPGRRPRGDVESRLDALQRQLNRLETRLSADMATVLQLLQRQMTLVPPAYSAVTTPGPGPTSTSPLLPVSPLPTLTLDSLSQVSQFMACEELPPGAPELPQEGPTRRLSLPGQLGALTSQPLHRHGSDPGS
Chain of BTK kinase (Q06187 whole entry): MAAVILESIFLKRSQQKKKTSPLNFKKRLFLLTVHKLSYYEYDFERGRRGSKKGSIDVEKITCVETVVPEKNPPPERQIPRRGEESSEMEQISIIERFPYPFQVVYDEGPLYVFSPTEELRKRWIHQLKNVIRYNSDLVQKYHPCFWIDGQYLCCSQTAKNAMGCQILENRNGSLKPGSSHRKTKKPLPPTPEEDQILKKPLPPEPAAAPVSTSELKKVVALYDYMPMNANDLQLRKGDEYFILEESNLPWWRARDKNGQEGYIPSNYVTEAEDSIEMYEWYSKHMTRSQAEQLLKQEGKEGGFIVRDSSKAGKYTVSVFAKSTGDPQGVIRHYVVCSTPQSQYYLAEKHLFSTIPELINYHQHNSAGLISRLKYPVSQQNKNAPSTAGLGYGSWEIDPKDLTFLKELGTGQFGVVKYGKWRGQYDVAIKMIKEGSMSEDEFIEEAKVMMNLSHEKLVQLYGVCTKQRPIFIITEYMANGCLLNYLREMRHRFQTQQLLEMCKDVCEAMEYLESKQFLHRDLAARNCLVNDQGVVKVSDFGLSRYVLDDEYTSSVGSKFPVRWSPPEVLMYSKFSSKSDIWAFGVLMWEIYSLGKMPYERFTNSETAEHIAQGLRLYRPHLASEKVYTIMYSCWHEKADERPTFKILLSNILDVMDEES

Row | IC50 [1] [nM] | IC50 [4] [nM] | F (po) % [6] [%] | clearance [6] [mL/min/kg] | half-life [6] [min] | AUC [6] [ng·h/mL] | Cmax [6] [ng/mL] | Tmax [6] [min] | Compound | IC50 [2] [nM] | IC50 [3] [nM] | IC50 [5] [nM]
1 | 4.9 | 0.13 | 27.12 | 57.5 | 31.2 | 770 | 1110 | 12.6 | C=CC(=O)N1C2CC[C@@H](C2)C1c1nc(-c2ccc(C(C)(O)c3ccccc3)cc2)c2c(N)nccn12 (stereo partly shown) [Example 79] | 164 | 1.2 | > 30000
2 | 21 | 0.21 | 20.64 | 121 | 7.8 | 278 | 303 | 6 | C=CC(=O)N1C[C@H]2[C@@H]([C@H]1c1nc(-c3ccc(C(=O)Nc4ccccn4)cc3)c3c(N)nccn13)C2(C)C [Example 5] | 175 | 3.6 | > 30000
